Results published in patent US9301954B2, “Pharmaceutical composition for the prevention or treatment of osteoarthritis containing rebamipide as an active ingredient” (HANLIM PHARMACEUTICAL CO., LTD, priority 2010, dated 2016).
Entries after “also recorded” stand apart in the source; their conditions may differ.

Tested on: MIA-induced osteoarthritis rats
Assay: Therapeutic efficacy of oral rebamipide in monosodium iodoacetate (MIA)-induced osteoarthritis in rats
Assay type: in vivo, Wistar rats
Procedure: About 5 week old male Wistar rats were used. Monosodium iodoacetate (MIA) was dissolved in a physiological saline; and then administered to the rats in the dose of 4 mg/50 μl via the right knee thereof, so as to induce osteoarthritis. The rats were divided into 3 groups, each having 5 rats. The first group (non-arthritis) was a non-treated group, i.e., a normal control group. The second group (MIA) was an osteoarthritis-induced group through the MIA administration. The rats of the third group (MIA+Rebamipide) were administered with the MIA to induce osteoarthritis; and then orally administered with rebamipide every day for 7 days. At the 7th day after the MIA induction, the femurs and the tibias were isolated from the rats of each group and then observed under a dissecting microscope. After H&E staining, the knee joint sites were observed through a low-magnification lens. In the results, the nucleus is shown in blue-violet color and the cytoplasm is shown in pink color. […] The knee joints were stained with Safranin O, which can show losses of the cartilage proteoglycans. The tartrate-resistant acid phosphatase (TRAP) staining for osteoclasts, was performed at 37° C. for 30 minutes, using a leukocyte acid phosphatase kit (Sigma 387-A, USA). The TRAP-positive cells were shown in red-violet color. The multinucleated cells (having above 3 nuclei) were considered as TRAP-positive cells (osteoclasts), which were counted under an optical microscope.

**Q.** `O=C(NC(Cc1cc(=O)[nH]c2ccccc12)C(=O)O)c1ccc(Cl)cc1` (stereo not drawn) [rebamipide] was tested. Which “Inflammation by H&E staining” value (MIA+Rebamipide group in comparison with the MIA group, oral, 7 days) did it give?
**A.** favorably changed

**Q.** And the “Cartilage damage by histological analyses (TRAP, safranin O, H&E staining)” value (MIA+Rebamipide group vs MIA group, oral, 7 days)?
**A.** remained intact without destruction

**Q.** What about the “Safranin O staining of femoral cartilage site (proteoglycan loss, surface)” value (MIA+Rebamipide group, oral, 7 days, similar to the non-arthritis group) of the same compound?
**A.** smooth and shown in strong orange-red color

**Q.** What about the “Cartilage damage of isolated femurs and tibias observed under a dissecting microscope” value (male Wistar rats, MIA 4 mg/50 μl via right knee, rebamipide orally every day for 7 days, 7th day after MIA induction) of the same compound?
**A.** significantly inhibited; also recorded: little damages in the cartilage sites

**Q.** What about the “Number of osteoclasts in the tibial subchondral bone via TRAP staining” value (rebamipide group in comparison with the MIA group, oral, 7 days) of the same compound?
**A.** significantly reduced

**Q.** What about the “Histology grade evaluation (standards of Table 1, FIG. 3): cartilage surface and safranin O loss” value (rebamipide-treated group, oral, 7 days) of the same compound?
**A.** only a little loss of safranin O in the cartilage site
